# Data published in article PMC10739574 (Bioconjugate Chemistry, 2023).
# Target: Recombinant FKBP12 (Homo sapiens, UniProt P62942)
# Experiment: Pure protein target engagement assay
# Type: binding
# Sequence of Recombinant FKBP12 (P62942 whole entry): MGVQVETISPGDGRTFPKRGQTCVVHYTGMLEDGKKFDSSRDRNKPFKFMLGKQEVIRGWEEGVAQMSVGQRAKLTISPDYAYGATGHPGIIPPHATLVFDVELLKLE
structure (smiles),measurement,setting,value
C#CCCC1(CC[C@H](NC(=O)NCCCCCCNC(=O)NCCNC(=O)COc2cccc([C@@H](CCc3ccc(OC)c(OC)c3)OC(=O)[C@@H]3CCCCN3C(=O)C(=O)C(C)(C)CC)c2)C(N)=O)N=N1.O=C(O)C(F)(F)F [Compound 3],Labeling of FKBP12 in dilution series,"8-point, 5-fold dilution series, UV irradiated",Dose-dependent labeling
"CO[C@H]1C[C@@H]2CC[C@@H](C)[C@@](O)(O2)C(=O)C(=O)N2CCCC[C@H]2C(=O)O[C@H]([C@H](C)C[C@@H]2CC[C@@H](O)[C@H](OC)C2)CC(=O)[C@H](C)/C=C(\C)[C@@H](O)[C@@H](OC)C(=O)[C@H](C)C[C@H](C)/C=C/C=C/C=C/1C [rapamycin, reference compound]",Competition of PAL probe interaction with FKBP12,"rapamycin 10 µM pretreatment, purified and crude probes 10 µM",prevented interaction with the PAL probes
"C#CCCC1(CC[C@H](NC(=O)NCCCCCCNC(=O)NCCN)C(N)=O)N=N1 [Compound 7, (S)-16-amino-2-(2-(3-(but-3-yn-1-yl)-3H-diazirin-3-yl)ethyl)-4,13-dioxo-3,5,12,14-tetraazahexadecanamide]",Nonspecific labeling of FKBP12,"crude linker, 10 and 40 µM, negative control",not seen
C#CCCC1(CC[C@H](NC(=O)NCCCCCCNC(=O)NCCNC(=O)COc2cccc([C@@H](CCc3ccc(OC)c(OC)c3)OC(=O)[C@H]3CCCN3C(=O)C(=O)C(C)(C)CC)c2)C(N)=O)N=N1.O=C(O)C(F)(F)F [Compound 6],Fluorescent intensity of the bands,"crude probes 10 µM, comparison",brighter than crude 3
